Laboratory results published in US20070009571A1, “Novel haptotactic peptides” (Hadasit Medical Research Services & Development Ltd., priority 1998, published 2007).
Entries after “also recorded” stand apart in the source; their conditions may differ. No end group written: not given here.

B1: γ chain: isolated γ chain of fibrinogen (protein, UniProt P02679 27-453, looked up)
Fibrinogen gamma chain: YVATRDNCCILDERFGSYCPTTCGIADFLSTYQTKVDKDLQSLEDILHQVENKTSEVKQLIKAIQLTYNPDESSKPNMIDAATLKSRKMLEEIMKYEASILTHDSSIRYLQEIYNSNNQKIVNLKEKVAQLEAQCQEPCKDTVQIHDITGKDCQDIANKGAKQSGLYFIKPLKANQQFLVYCEIDGSGNGWTVFQKRLDGSVDFKKNWIQYKEGFGHLSPTGTTEFWLGNEKIHLISTQSAIPYALRVELEDWNGRTSTADYAMFKVGPEADKYRLTYAYFAGGDAGDAFDGFDFGDDPSDKFFTSHNGMQFSTWDNDNDKFEGNCAEQDGSGWWMNKCHAGHLNGVYYQGGTYSKASTPNGYDNGIIWATWKTRWYSMKKTTMKIIPFNRLTIGEGQQHHLGGAKQVRPEHPAETEYDSLYPEDDL
modifications: Fibrinogen gamma chain
notes: isolated γ chain of fibrinogen

Experiments:
[1] = system: bovine aortic endothelial cells (EC, BAEC); experiment: Haptotaxis assay: attachment of ligand-coated SB to cultured cells; assay type: cell-based; settings: for % Binding of peptide-coated SB to normal cultured cells: percentage of SB-ligand attached to cells by day 4
Procedure: (§1) Peptides or fibrinogen were covalently bound to CNBr activated sepharose beads (SB) (Pharmacia, Piscataway, N.J.) using techniques previously used to bind albumin, fibrinogen and thrombin. Briefly, CNBr-activated sepharose 4B (Pharmacia) was washed with 1N HCl, and suspended in the coupling buffer (pH 8.3), following the protocol supplied by the manufacturer. The peptides were dialyzed against the coupling buffer to remove Tris. Peptides (1 mg) were not highly water soluble. The peptides were dissolved in 1 mL 70% ethanol or dimethylformamide, and were then mixed into the coupling buffer containing 1 mL CNBr-activated sepharose. The suspension was gently agitated overnight, then centrifuged 500×g to pack the beads. This procedure covalently binds more than 95% of proteins or peptides including fibrinogen or peptides-CαE (SEQ ID NO:3), Cβ (SEQ ID NO:1) and preCγ (SEQ ID NO:2) to the beads determined by Abs280 readings of the solutions.
(§2) The migratory/adhesion response of cells to proteins (such as fibrinogen) or peptides covalently bound to SB was measured as follows. Cells were grown in 6 or 12 well plates to near confluence or in suspension until they covered about ½ to ⅔ of the plate surface. At that point, about […] of a suspension containing 50% v/v SB coated with the test protein or peptide were added to the plate and dispersed by gentle shaking for 1 min. The plate was then returned to the incubator and examined at different times by inverted phase microscopy.
(§3) The SB (naked or ligand bound) sedimented onto the nearly confluent cell layer and occasionally made physical contact with cell membranes on the plate (ascribed to Brownian motion or micro-convection currents). […] Typically, 300 beads (but not less then 200) were counted in each well and the ratio of SB bound to the cells relative to total number SB could be calculated (SB bound/SB total). Counting the percentage of SB attached to the cell surface at different time intervals provided a quantitative assay of the kinetics of the attachment of coated beads to cells. Negative control with uncoated SB or positive controls with SB-fibrinogen were employed with at least 3 wells measured for each. The statistical error was calculated from the square root of the total counts.
(§4) The peptides of the present invention were synthesized and tested in cell culture systems as described above. Essentially, peptides were covalently attached to sepharose beads to form SB-Cα (SEQ ID NO:4), SB-Cβ (SEQ ID NO:1), SB-PreCγ (SEQ ID NO:2), SB-Cγ (SEQ ID NO:5) and SB-CαE (SEQ ID NO:3), respectively, as was fibrinogen to form SB-Fib. The SB-peptide combination was then incubated with cultured cells. […] The haptotactic potency of the peptides is summarized in Table 3 with the percentage of SB-Fib/peptide attached to cells (by day 4) given in columns 2-5 of Table 3.

tested cell lines = experiment: Haptotaxis assay, statements over the tested cell lines; assay type: cell-based; settings: ligands covalently bound to SB; for haptotactic response / cell binding to SB-ligand, in words: near confluent cell cultures
Procedure: as §1, §2, §3, §4

HF [2] = experiment: Cell proliferation, MTS assay; assay type: cell-based, human; settings: 0.4 nM-4 μM, 96 well plates
Procedure: Cell proliferation was evaluated by measuring cell density as a function of time by two different colorimetric assays. The MTS colorimetric assay (CellTitre 96 Aqueous Assay by Promega) is based on dehydrogenase conversion of MTS (methyl tetrazolium salt) by viable cells to […] (Ge M. Tang, G., Ryan. T. J. and Malik. A. B., “Fibrinogen degradation product fragment D induces endothelial cell detachment by activation of cell-mediated fibrinolysis”, J. Clin. Inves., 90:2508-2516 (1992)); the methylene blue (MB) assay is based on the staining of monolayer cells after their fixation, and reading the absorbence of the absorbed dye.
The MTS assay for viable cells was performed as follows: 30 μL of freshly prepared MTS/PMS were added to each well; following 2 hrs incubation at 37° C., the plates were placed on a computer driven microplate reader (Anthos HT-II, Salzburg, Austria), programmed to shake the plate for 1 minute before reading the optical density (OD) of the dye at 490 nm. The measurements were repeated following 4 and 6 hours of incubation.
Peptides (Cα (SEQ ID NO:4), […], PreCγ (SEQ ID NO:2) and CαE (SEQ ID NO:3)), up to 1 μg/mL or 100 μg/mL fibrinogen or thrombin (final concentrations) were added to the culture medium and cell numbers were assayed by day 3 using the MTS assay. The change in cell number was compared with that observed versus saline control. Of the 5 peptides tested at dosages up to 10 μg/mL (approximately equimolar to 1 μg/mL fibrinogen), none of the peptides exerted significant effect on cell proliferation (FIG. 7).

EC cells (BAEC) = experiment: FACS analysis of binding of FITC-labeled peptides; assay type: cell-based, bovine; settings: 10 μg/ml or 100 μg/ml, medium with 0.1% albumin
Procedure: (§5) EC and HF cell monolayers were washed and then incubated with trypsin-versene. Cells were then washed with growth medium and resuspended in medium with 0.1% albumin. FITC-labeled peptide-Cβ (SEQ ID NO:1) was incubated with 5×10^5 EC cells (10 μg/ml or 100 μg/ml) or with 2.5×10^5 HF cells (100 μg/ml) in medium with 0.1% albumin. FITC-labeled peptide-CαE (SEQ ID NO:3) and Cα (SEQ ID NO:4) (10 μg/ml) was incubated with 5×10^5 EC cells in medium with 0.1% albumin. Cells were then washed with PBS and 1% albumin. Cells were resuspended in PBS and 1% albumin and then filtered through a mesh for FACS analysis, in which the FITC tluorescence was measured for each cell.
(§6) The control is without FITC-labeled peptide (background fluorescence).
(§7) In competition experiments, cells were incubated with various concentrations of unlabeled Cβ (SEQ ID NO:1) for 15 mins, an aliquot of Cβ^FITC (4 mM) was added and the sample was subjected to FACS analysis. […] The Cβ^FITC (SEQ ID NO:1) uptake experiments best fitted a linear-quadratic curve-fit.

HF cells = experiment: FACS analysis of binding of FITC-labeled peptides; assay type: cell-based, human; settings: 100 μg/ml, medium with 0.1% albumin
Procedure: as §5, §6, §7

cells such as HF or BAEC = experiment: FACS competition and uptake experiments with Cβ-FITC; assay type: cell-based; design: dose or concentration left out as unconfirmed; settings: preincubation with unlabeled Cβ for 15 mins
Procedure: as §7

BAEC = experiment: Chemotaxis, micro-Boyden chamber assay; assay type: cell-based, bovine; settings: up to 40 μg/ml
Procedure: (§8) Chemotaxis was evaluated using 48-well plastic Microtaxis micro-Boyden chambers. Polycarbonate filters with pore size of 8 μm were coated with fibronectin for 2 hours at 37° C. Conditioned medium from 3T3 cells served as a positive control. Test solution (26 μl) containing the tested peptides or protein or medium with no additions that served as control were placed in the lower chamber, covered with the filter. 50 μl cell suspension was introduced to the upper chamber of each well. The number of cells/well varied in the range of 5,000-10,000 in different experiments. The device loaded with cells was incubated at 37° C. for 4-5 hours. The filter was then removed and the non-migrating cells on its upper part were carefully wiped off with a damp cotton swab. The filter was fixed in methanol and stained with Accustain (modified Wright stain solution Sigma Diagnostics: St. Lois, Mo.). Cells that crossed or were retained within the filter were counted microscopically at low magnification so that the viewing field corresponded to the whole area of each well. Each experimental variant was performed in duplicated or triplicates and the data from, three successful experiments were normalized to the values of the positive control and averaged.
The chemotactic response of BAEC to a soluble gradient of […], the most haptotactic of the peptides studied was as follows. The results can be seen in FIG. 6. […] A similar, though more moderate, chemotaxis response to Cβ (SEQ ID NO:1) was obtained with HF.

HF [3] = experiment: Chemotaxis, micro-Boyden chamber assay; assay type: cell-based, human; settings: compared with BAEC
Procedure: as §8
The chemotactic response of BAEC to a soluble gradient of Cα (SEQ ID NO:1), the most haptotactic of the peptides studied was as follows. […]

[4] = system: normal human skin fibroblasts (HF); experiment: Haptotaxis assay: attachment of ligand-coated sepharose beads (SB) to cultured cells; assay type: cell-based; settings: for % Binding of peptide-coated SB to normal cultured cells: percentage of SB-ligand attached to cells by day 4
Procedure: as §1, §2, §3, §4

[5] = system: human ovarian carcinoma cells (OV-1063); experiment: Haptotaxis assay: attachment of ligand-coated SB to cultured cells; assay type: cell-based; settings: percentage of SB-ligand attached to cells by day 4
Procedure: as §1, §2, §3, §4

[6] = system: murine mammary adenocarcinoma cells (EMT-6); experiment: as above; assay type: cell-based; settings: for % Binding of peptide-coated SB to normal cultured cells: percentage of SB-ligand attached to cells by day 4
Procedure: as §1, §2, §3, §4

[7] = system: normal human keratinocytes; experiment: as above; assay type: cell-based; settings: Keratinocyte; percentage of SB-ligand attached to cells by day 4
Procedure: as §1, §2, §3, §4

[8] = system: normal murine fibroblasts (MF); experiment: as above; assay type: cell-based; settings: for % Binding of peptide-coated SB to normal cultured cells: percentage of SB-ligand attached to cells by day 4
Procedure: as §1, §2, §3, §4

[9] = system: porcine smooth muscle cells (SMC); experiment: as above; assay type: cell-based; settings: for % Binding of peptide-coated SB to normal cultured cells: percentage of SB-ligand attached to cells by day 4
Procedure: as §1, §2, §3, §4

human fibroblasts = settings: isolated constituent chains of fibrinogen; Gray et al. 1993; cited from earlier work

Row | Molecule | cell binding / haptotactic response to SB-ligand, in words [1] | haptotactic response / cell binding to SB-ligand, in words (tested cell lines) | % Binding of peptide-coated SB to normal cultured cells [4] | % Binding of peptide-coated SB to normal cultured cells [1] | % Binding of peptide-coated SB to normal cultured cells [5] | % Binding of peptide-coated SB to normal cultured cells [6] | % Binding of peptide-coated SB to normal cultured cells [7] | % Binding of peptide-coated SB to normal cultured cells [8] | % Binding of peptide-coated SB to normal cultured cells [9] | cell lines excepted from binding to SB-ligand (all other tested lines bound) (tested cell lines) | number of cell lines bound by SB-ligand out of 7 tested (tested cell lines) | further results
1 | KGSWYSMRKMSMKIRPFFPQQ (Equivalent to the c-terminus of fibrinogen beta-chain) [Cβ, haptotactic peptide homologous to the carboxy terminus of the fibrinogen β chain, β 441-461] | greatest haptotactic response | highly haptotactic; also recorded: significant haptotactic responses |  |  |  |  |  |  |  |  |  | proliferative response of HF (MTS proliferation assay) (HF [2]): none of these peptides stimulated or inhibited proliferation; binding/uptake of FITC-labeled peptide by FACS, in words (EC cells (BAEC)): higher than that of CαE; also recorded: clearly bound to cells; binding/uptake of FITC-labeled peptide by FACS, in words (HF cells): higher than that of CαE; effect of unlabeled peptide on uptake of Cβ-FITC (competition) (cells such as HF or BAEC): increased the level of total Cβ; chemotactic response relative to negative control of 1% BSA serum-free medium (BAEC; BAEC): 3 times; chemotactic response of BAEC, in words (BAEC; soluble gradient, conditioned medium = 100% chemotaxis): highly significant chemotaxis; chemotaxis response of HF, in words (HF [3]): more moderate
2 | SB-CαE: peptide-CαE (SEQ ID NO:3) covalently attached to sepharose beads (RGADYSLRAVRMKIRPLVTQ; also: attached to sepharose beads) | strong binding | next most potent | 52% | 43% | 0% | 64% | 0% | 61% | 8% | with the exception of OV-1063, keratinocytes and cells derived from a leucocytic lineage | 5 | cell binding to SB-ligand, in words [4]: strong binding; cell binding to SB-ligand, in words [6]: strong binding; cell binding to SB-ligand, in words [8]: strong binding; cell binding to SB-ligand, in words [9]: Weak attachment
3 | SB-Cβ: peptide-Cβ (SEQ ID NO:1) covalently attached to sepharose beads (KGSWYSMRKMSMKIRPFFPQQ; also: attached to sepharose beads) |  | most potent | 100% | 94% | 4% | 99% | 0% | 89% | 100% | with the exception of OV-1063, keratinocytes and cells derived from a leucocytic lineage | 5 | 
4 | B1 |  |  |  |  |  |  |  |  |  |  |  | stimulation of fibroblast proliferation above controls (human fibroblasts): no effect
